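Cultured in 96-well plates, cells were exposed to test compound for 48 hours across five concentrations. GI50 marks 50% less growth. Definition used: TGI = concentration required for complete inhibition of growth.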
How the values were obtained:
Test in all cases: NCI-60 cell line screen, 48 h
NCI-H226 lung = test system: NCI-H226 lung
CAKI-1 renal = test system: CAKI-1 renal
SF-268 CNS = test system: SF-268 CNS
ACHN renal = test system: ACHN renal
EKVX NSCLC = test system: EKVX NSCLC
HCT-116 colon = test system: HCT-116 colon
MOLT-4 leukemia = test system: MOLT-4 leukemia
LOX IMVI melanoma = test system: LOX IMVI melanoma
M14 melanoma = test system: M14 melanoma
NCI-H460 lung = test system: NCI-H460 lung
HL-60(TB) leukemia = test system: HL-60(TB) leukemia
NCI/ADR-RES ovarian = test system: NCI/ADR-RES ovarian
SK-MEL-28 melanoma = test system: SK-MEL-28 melanoma
786-0 renal = test system: 786-0 renal
HOP-62 NSCLC = test system: HOP-62 NSCLC
SK-MEL-2 melanoma = test system: SK-MEL-2 melanoma
OVCAR-8 ovarian = test system: OVCAR-8 ovarian
COLO 205 colon = test system: COLO 205 colon
RXF 393 renal = test system: RXF 393 renal
IGROV1 ovarian = test system: IGROV1 ovarian
SR leukemia = test system: SR leukemia
HS 578T breast = test system: HS 578T breast
OVCAR-3 ovarian = test system: OVCAR-3 ovarian
UACC-62 melanoma = test system: UACC-62 melanoma
SK-OV-3 ovarian = test system: SK-OV-3 ovarian
MDA-MB-231 breast = test system: MDA-MB-231 breast
TK-10 renal = test system: TK-10 renal
OVCAR-4 ovarian = test system: OVCAR-4 ovarian
UACC-257 melanoma = test system: UACC-257 melanoma
SNB-75 CNS = test system: SNB-75 CNS
NCI-H522 lung = test system: NCI-H522 lung
MDA-MB-435 = test system: MDA-MB-435
SW-620 colon = test system: SW-620 colon
DU-145 prostate = test system: DU-145 prostate
NCI-H23 lung = test system: NCI-H23 lung
SNB-19 CNS = test system: SNB-19 CNS
BT-549 breast = test system: BT-549 breast
SK-MEL-5 melanoma = test system: SK-MEL-5 melanoma
PC-3 prostate = test system: PC-3 prostate
RPMI-8226 leukemia = test system: RPMI-8226 leukemia
SF-295 CNS = test system: SF-295 CNS
KM12 colon = test system: KM12 colon
MALME-3M melanoma = test system: MALME-3M melanoma
HCT-15 colon = test system: HCT-15 colon
HOP-92 NSCLC = test system: HOP-92 NSCLC
A498 renal = test system: A498 renal
A549 NSCLC = test system: A549 NSCLC
UO-31 renal = test system: UO-31 renal
T-47D breast = test system: T-47D breast
U251 CNS = test system: U251 CNS
SN12C renal = test system: SN12C renal
MCF7 breast = test system: MCF7 breast
OVCAR-5 ovarian = test system: OVCAR-5 ovarian
K-562 leukemia = test system: K-562 leukemia
HT29 colon = test system: HT29 colon
HCC-2998 colon = test system: HCC-2998 colon
CCRF-CEM leukemia = test system: CCRF-CEM leukemia

CC1=C2C(=C[C@@](C)(COS(C)(=O)=O)[C@@H]2O)C(=O)[C@](C)(O)C12CC2 showed a GI50 (NCI-H226 lung) of 2120 nM, a TGI (NCI-H226 lung) of 6170 nM and a GI50 (CAKI-1 renal) of 406 nM. It also gave a TGI (CAKI-1 renal) of 5360 nM, a GI50 (SF-268 CNS) of 333 nM and a TGI (SF-268 CNS) of 2290 nM. The GI50 (ACHN renal) was 349 nM, the TGI (ACHN renal) was 3550 nM and the GI50 (EKVX NSCLC) was 1660 nM. The TGI (EKVX NSCLC) was 5220 nM, the GI50 (HCT-116 colon) was 315 nM and the TGI (HCT-116 colon) was over 31700 nM. For the same compound, the GI50 (MOLT-4 leukemia) was 331 nM, the TGI (MOLT-4 leukemia) was over 100000 nM and the GI50 (LOX IMVI melanoma) was 365 nM. For the same compound, the TGI (LOX IMVI melanoma) was 1690 nM, the GI50 (M14 melanoma) was 717 nM and the TGI (M14 melanoma) was 2540 nM. For the same compound, the GI50 (NCI-H460 lung) was 216 nM, the TGI (NCI-H460 lung) was 517 nM and the GI50 (HL-60(TB) leukemia) was 466 nM. For the same compound, the TGI (HL-60(TB) leukemia) was 4530 nM, the GI50 (NCI/ADR-RES ovarian) was 762 nM and the TGI (NCI/ADR-RES ovarian) was 5970 nM. For the same compound, the GI50 (SK-MEL-28 melanoma) was 678 nM, the TGI (SK-MEL-28 melanoma) was 2500 nM and the GI50 (786-0 renal) was 1960 nM. For the same compound, the TGI (786-0 renal) was 6740 nM, the GI50 (HOP-62 NSCLC) was 371 nM and the TGI (HOP-62 NSCLC) was 2040 nM. For the same compound, the GI50 (SK-MEL-2 melanoma) was 289 nM, the TGI (SK-MEL-2 melanoma) was 793 nM and the GI50 (OVCAR-8 ovarian) was 1740 nM. For the same compound, the TGI (OVCAR-8 ovarian) was 12000 nM, the GI50 (COLO 205 colon) was 761 nM and the TGI (COLO 205 colon) was 2840 nM. It also gave a GI50 (RXF 393 renal) of 335 nM, a TGI (RXF 393 renal) of 930 nM and a GI50 (IGROV1 ovarian) of 556 nM. For the same compound, the TGI (IGROV1 ovarian) was 5670 nM, the GI50 (SR leukemia) was 360 nM and the TGI (SR leukemia) was over 100000 nM. It also gave a GI50 (HS 578T breast) of 1770 nM, a TGI (HS 578T breast) of 4780 nM and a GI50 (OVCAR-3 ovarian) of 544 nM. It also gave a TGI (OVCAR-3 ovarian) of 4530 nM, a GI50 (UACC-62 melanoma) of 257 nM and a TGI (UACC-62 melanoma) of 731 nM. For the same compound, the GI50 (SK-OV-3 ovarian) was 447 nM, the TGI (SK-OV-3 ovarian) was 2220 nM and the GI50 (MDA-MB-231 breast) was 1340 nM. It also gave a TGI (MDA-MB-231 breast) of 5990 nM, a GI50 (TK-10 renal) of 2220 nM and a TGI (TK-10 renal) of 7140 nM. The GI50 (OVCAR-4 ovarian) was 1450 nM, the TGI (OVCAR-4 ovarian) was 5680 nM and the GI50 (UACC-257 melanoma) was 2390 nM. The TGI (UACC-257 melanoma) was 6900 nM, the GI50 (SNB-75 CNS) was 1370 nM and the TGI (SNB-75 CNS) was 2860 nM. The GI50 (NCI-H522 lung) was 347 nM, the TGI (NCI-H522 lung) was 1560 nM and the GI50 (MDA-MB-435) was 757 nM. The TGI (MDA-MB-435) was 2210 nM, the GI50 (SW-620 colon) was 320 nM and the TGI (SW-620 colon) was over 100000 nM. For the same compound, the GI50 (DU-145 prostate) was 366 nM, the TGI (DU-145 prostate) was 5040 nM and the GI50 (NCI-H23 lung) was 350 nM. The TGI (NCI-H23 lung) was 1560 nM, the GI50 (SNB-19 CNS) was 477 nM and the TGI (SNB-19 CNS) was 6010 nM. For the same compound, the GI50 (BT-549 breast) was 632 nM, the TGI (BT-549 breast) was 2470 nM and the GI50 (SK-MEL-5 melanoma) was 272 nM. It also gave a TGI (SK-MEL-5 melanoma) of 755 nM, a GI50 (PC-3 prostate) of 624 nM and a TGI (PC-3 prostate) of 4820 nM. The GI50 (RPMI-8226 leukemia) was 3660 nM, the TGI (RPMI-8226 leukemia) was 52000 nM and the GI50 (SF-295 CNS) was 293 nM. It also gave a TGI (SF-295 CNS) of 1280 nM, a GI50 (KM12 colon) of 579 nM and a TGI (KM12 colon) of 7130 nM. For the same compound, the GI50 (MALME-3M melanoma) was 459 nM, the TGI (MALME-3M melanoma) was 1760 nM and the GI50 (HCT-15 colon) was 443 nM. It also gave a TGI (HCT-15 colon) of 5140 nM, a GI50 (HOP-92 NSCLC) of 357 nM and a TGI (HOP-92 NSCLC) of 1480 nM. The TGI (A498 renal) was 694 nM, the GI50 (A549 NSCLC) was 604 nM and the TGI (A549 NSCLC) was 6920 nM. It also gave a GI50 (UO-31 renal) of 1570 nM, a TGI (UO-31 renal) of 5520 nM and a GI50 (T-47D breast) of 1790 nM. For the same compound, the TGI (T-47D breast) was 7780 nM, the GI50 (U251 CNS) was 286 nM and the TGI (U251 CNS) was 1340 nM. The GI50 (SN12C renal) was 1990 nM, the TGI (SN12C renal) was 10700 nM and the GI50 (MCF7 breast) was 238 nM. It also gave a TGI (MCF7 breast) of 2550 nM, a GI50 (OVCAR-5 ovarian) of 382 nM and a TGI (OVCAR-5 ovarian) of 3060 nM. It also gave a GI50 (K-562 leukemia) of 478 nM, a TGI (K-562 leukemia) of over 100000 nM and a GI50 (HT29 colon) of 414 nM. The TGI (HT29 colon) was 28600 nM, the GI50 (HCC-2998 colon) was 648 nM and the TGI (HCC-2998 colon) was 2870 nM. It also gave a GI50 (CCRF-CEM leukemia) of 344 nM and a TGI (CCRF-CEM leukemia) of over 100000 nM.

From PubChem BioAssay (NCI)
